Assay results: patent US10865191B2, “Heterocyclic compounds useful as modulators of TNF alpha” (BRISTOL-MYERS SQUIBB COMPANY, priority 2015, dated 2020)

These compounds were tested against TNFα (Homo sapiens, UniProt P01375) (assay: TNF induced HEK-Blue assay (NF-kB-driven secreted alkaline phosphatase reporter)). Conditions: TNFα 0.5 ng/mL, HEK-Blue-CD40L cells, 18 h; read-out: TNF induced HEK-Blue assay IC50 value.
Format: cell-based
How it was run: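 HEK-Blue-CD40L cells (NF-kB-driven SEAP reporter), 20,000/well, added after 30 min pre-incubation of compound (0.004–25 μM final) with TNFα 0.5 ng/mL final at 37 °C; 18 h incubation. SEAP read with QUANTI-Blue at 620 nm; IC50 from 4-parameter logistic fit, normalized to unstimulated and stimulated DMSO controls.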

Sequence of TNFα (P01375 77-233 limits assumed): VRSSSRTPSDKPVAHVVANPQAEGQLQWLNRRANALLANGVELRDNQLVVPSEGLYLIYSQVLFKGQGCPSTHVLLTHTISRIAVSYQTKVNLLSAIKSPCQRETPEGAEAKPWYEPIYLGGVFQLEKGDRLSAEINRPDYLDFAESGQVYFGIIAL

Row | Compound | IC50 [µM]
1 | Cc1nc2cc(F)c(-c3ccc(=O)[nH]c3)cc2c(N[C@H](C)c2cc(C#N)ccc2F)c1Cl [Example 450, (R)-3-(1-((3-chloro-7-fluoro-2-methyl-6-(6-oxo-1,6-dihydropyridin-3-yl)quinolin-4-yl)amino)ethyl)-4-fluorobenzonitrile] | < 1
2 | COc1ccc(F)c([C@@H](C)Nc2c(Cl)cnc3ccccc23)c1 [Example 451, (R)-3-chloro-N-(1-(2-fluoro-5-methoxyphenyl)ethyl)quinolin-4-amine] | 1 to 10
3 | C=CCc1ccc(F)c([C@@H](C)Nc2c(Cl)cnc3ccccc23)c1 [Example 452, (R)—N-(1-(5-allyl-2-fluorophenyl)ethyl)-3-chloroquinolin-4-amine] | 1 to 10
4 | CCC(Nc1c(Cl)cnc2ccccc12)c1ccccc1F (centres unmarked) [Example 453, 3-chloro-N-(1-(2-fluorophenyl)propyl)quinolin-4-amine] | 1 to 10
5 | C[C@@H](Nc1c(Cl)cnc2ccccc12)c1cc(-c2cnn(C)c2)ccc1F [Example 454, (R)-3-chloro-N-(1-(2-fluoro-5-(1-methyl-1H-pyrazol-4-yl)phenyl)ethyl)quinolin-4-amine] | < 1
6 | C[C@@H](Nc1c(Cl)cnc2ccccc12)c1cc(-c2cn[nH]c2)ccc1F [Example 455, (R)-3-chloro-N-(1-(2-fluoro-5-(1H-pyrazol-4-yl)phenyl)ethyl)quinolin-4-amine] | < 1
7 | COc1ccc(F)c([C@@H](C)Nc2ccnc3ccc(Cl)cc23)c1 [Example 456, (R)-6-chloro-N-(1-(2-fluoro-5-methoxyphenyl)ethyl)quinolin-4-amine] | 10 to 25
8 | C=CCOc1ccc(F)c([C@@H](C)Nc2c(Cl)cnc3ccccc23)c1 [Example 457, (R)—N-(1-(5-(allyloxy)-2-fluorophenyl)ethyl)-3-chloroquinolin-4-amine] | 1 to 10
9 | C[C@@H](Nc1c(Cl)cnc2ccccc12)c1cc(OCCCO)ccc1F [Example 458, (R)-3-(3-(1-((3-chloroquinolin-4-yl)amino)ethyl)-4-fluorophenoxy)propan-1-ol] | 1 to 10
10 | C[C@@H](Nc1c(Cl)cnc2ccccc12)c1cc(-c2ccccc2)ccc1F [Example 459, (R)-3-chloro-N-(1-(4-fluoro-[1,1′-biphenyl]-3-yl)ethyl)quinolin-4-amine] | < 1
11 | COc1ccc(-c2ccc(F)c([C@@H](C)Nc3c(Cl)cnc4ccccc34)c2)cn1 [Example 460, (R)-3-chloro-N-(1-(2-fluoro-5-(6-methoxypyridin-3-yl)phenyl)ethyl)quinolin-4-amine] | < 1
12 | C[C@@H](Nc1c(Cl)cnc2ccccc12)c1cc(-c2cccnc2)ccc1F [Example 461, (R)-3-chloro-N-(1-(2-fluoro-5-(pyridin-3-yl)phenyl)ethyl)quinolin-4-amine] | < 1
13 | COc1cccc([C@@H](C)Nc2c(Cl)cnc3ccccc23)c1 [Example 462, (R)-3-chloro-N-(1-(3-methoxyphenyl)ethyl)quinolin-4-amine] | 10 to 25
14 | C[C@@H](Nc1c(Cl)cnc2ccccc12)c1ccccc1C(F)(F)F [Example 463, 3-chloro-N-(1-(2-(trifluoromethyl)phenyl)ethyl)quinolin-4-amine] | 10 to 25
15 | C[C@@H](Nc1c(Cl)cnc2ccccc12)c1cc(CCCO)ccc1F [Example 464, (R)-3-(3-(1-((3-chloroquinolin-4-yl)amino)ethyl)-4-fluorophenyl)propan-1-ol] | 1 to 10
16 | C[C@@H](Nc1c(Cl)cnc2ccccc12)c1cc(-c2cnn(CC(C)(C)O)c2)ccc1F [Example 465, (R)-1-(4-(3-(1-((3-chloroquinolin-4-yl)amino)ethyl)-4-fluorophenyl)-1H-pyrazol-1-yl)-2-methylpropan-2-ol] | 1 to 10
17 | C[C@@H](Nc1c(Cl)cnc2ccccc12)c1cc(-c2cnn(Cc3ccccc3)c2)ccc1F [Example 466, (R)—N-(1-(5-(1-benzyl-1H-pyrazol-4-yl)-2-fluorophenyl)ethyl)-3-chloroquinolin-4-amine] | 10 to 25
18 | C[C@@H](Nc1c(Cl)cnc2ccccc12)c1cc(-c2cnc(N3CCOCC3)nc2)ccc1F [Example 467, (R)-3-chloro-N-(1-(2-fluoro-5-(2-morpholinopyrimidin-5-yl)phenyl)ethyl)quinolin-4-amine] | 1 to 10
19 | C[C@@H](Nc1c(Cl)cnc2ccccc12)c1cc(-c2ccncc2)ccc1F [Example 468, (R)-3-chloro-N-(1-(2-fluoro-5-(pyridin-4-yl)phenyl)ethyl)quinolin-4-amine] | 1 to 10

Row | Compound | IC50 [µM]
20 | C[C@@H](Nc1c(Cl)cnc2ccccc12)c1cc(-c2cnc(C(C)(C)O)nc2)ccc1F [Example 469, (R)-2-(5-(3-(1-((3-chloroquinolin-4-yl)amino)ethyl)-4-fluorophenyl)pyrimidin-2-yl)propan-2-ol] | 1 to 10
21 | Cc1ccc(Br)cc1Nc1c(Cl)c(C)nc2ccccc12 [Example 470, N-(5-bromo-2-methylphenyl)-3-chloro-2-methylquinolin-4-amine] | 10 to 25
22 | C[C@@H](Nc1c(Cl)cnc2ccccc12)c1cc(-c2cnn(C(F)F)c2)ccc1F [Example 471, (R)-3-chloro-N-(1-(5-(1-(difluoromethyl)-1H-pyrazol-4-yl)-2-fluorophenyl)ethyl) quinolin-4-amine] | 1 to 10
23 | C[C@@H](Nc1c(Cl)cnc2ccccc12)c1cc(-c2cn(C)nc2C(F)(F)F)ccc1F [Example 472, (R)-3-chloro-N-(1-(2-fluoro-5-(1-methyl-3-(trifluoromethyl)-1H-pyrazol-4-yl)phenyl)ethyl)quinolin-4-amine] | 1 to 10
24 | CCn1cc(-c2ccc(F)c([C@@H](C)Nc3c(Cl)cnc4ccccc34)c2)cn1 [Example 473, (R)-3-chloro-N-(1-(5-(1-ethyl-1H-pyrazol-4-yl)-2-fluorophenyl)ethyl)quinolin-4-amine] | < 1
25 | Cc1c(-c2ccc(F)c([C@@H](C)Nc3c(Cl)cnc4ccccc34)c2)cnn1C [Example 474, (R)-3-chloro-N-(1-(5-(1,5-dimethyl-1H-pyrazol-4-yl)-2-fluorophenyl)ethyl)quinolin-4-amine] | < 1
26 | Cc1ncccc1-c1ccc(F)c([C@@H](C)Nc2c(Cl)cnc3ccccc23)c1 [Example 475, (R)-3-chloro-N-(1-(2-fluoro-5-(2-methylpyridin-3-yl)phenyl)ethyl)quinolin-4-amine] | 1 to 10
27 | COc1ccc(F)c([C@H](C)Nc2c(Cl)cnc3ccccc23)c1 [Example 476, (S)-3-chloro-N-(1-(2-fluoro-5-methoxyphenyl)ethyl)quinolin-4-amine] | 1 to 10
28 | Cc1cc(-c2ccc(F)c([C@@H](C)Nc3c(Cl)cnc4ccccc34)c2)cnn1 [Example 477, (R)-3-chloro-N-(1-(2-fluoro-5-(6-methylpyridazin-4-yl)phenyl)ethyl)quinolin-4-amine] | 1 to 10
29 | C[C@@H](Nc1c(Cl)cnc2ccccc12)c1cc(-c2ccc(N)nc2)ccc1F [Example 478, (R)—N-(1-(5-(6-aminopyridin-3-yl)-2-fluorophenyl)ethyl)-3-chloroquinolin-4-amine] | < 1
30 | C[C@@H](Nc1c(Cl)cnc2ccccc12)c1cc(-c2cncnc2)ccc1F [Example 479, (R)-3-chloro-N-(1-(2-fluoro-5-(pyrimidin-5-yl)phenyl)ethyl)quinolin-4-amine] | < 1
31 | C[C@@H](Nc1c(Cl)cnc2ccccc12)c1cc(-c2cnn(CCN3CCOCC3)c2)ccc1F [Example 480, (R)-3-chloro-N-(1-(2-fluoro-5-(1-(2-morpholinoethyl)-1H-pyrazol-4-yl)phenyl)ethyl)quinolin-4-amine] | 10 to 25
32 | C[C@@H](Nc1c(Cl)cnc2ccccc12)c1cc(-c2cnc(N)nc2)ccc1F [Example 481, (R)—N-(1-(5-(2-aminopyrimidin-5-yl)-2-fluorophenyl)ethyl)-3-chloroquinolin-4-amine] | < 1
33 | CC(=O)NC(CO)c1ccc(-c2ccc3ncc(Cl)c(N[C@H](C)c4ccccc4F)c3c2)cc1 (stereo partly drawn) [Example 482, N-(1-(4-(3-chloro-4-(((R)-1-(2-fluorophenyl)ethyl)amino)quinolin-6-yl)phenyl)-2-hydroxyethyl)acetamide] | 10 to 25
34 | C[C@@H](Nc1c(Cl)cnc2ccc(-c3ccc(C4(NC(N)=O)CCC4)cc3)cc12)c1ccccc1F [Example 483, (R)-1-(1-(4-(3-chloro-4-((1-(2-fluorophenyl)ethyl)amino)quinolin-6-yl)phenyl)cyclobutyl)urea] | 1 to 10
35 | Cc1ccc(F)c(C(C)Nc2c(Cl)cnc3ccc(-c4cnc(N5CCNC(=O)C5)nc4)cc23)n1 (centres unmarked) [Example 484, 4-(5-(3-chloro-4-((1-(3-fluoro-6-methylpyridin-2-yl)ethyl)amino)quinolin-6-yl)pyrimidin-2-yl)piperazin-2-one] | < 1
36 | CC(C)(O)c1ncc(-c2nc3c(N[C@H](c4cc(C(=O)O)ccc4F)C(F)F)c(Cl)cnc3cc2F)cn1 [Example 485, (R)-3-(1-((3-chloro-7-fluoro-6-(2-(2-hydroxypropan-2-yl)pyrimidin-5-yl)-1,5-naphthyridin-4-yl)amino)-2,2-difluoroethyl)-4-fluorobenzoic acid] | 1 to 10
37 | CC(C)(O)c1ncc(-c2nc3c(N[C@H](c4cc(CO)ccc4F)C(F)F)c(Cl)cnc3cc2F)cn1 [Example 486, (R)-2-(5-(7-chloro-8-((2,2-difluoro-1-(2-fluoro-5-(hydroxymethyl)phenyl)ethyl)amino)-3-fluoro-1,5-naphthyridin-2-yl)pyrimidin-2-yl)propan-2-ol] | < 1
38 | CC(C)(O)c1ncc(-c2nc3c(N[C@H](c4cc(C(N)=O)ccc4F)C(F)F)c(Cl)cnc3cc2F)cn1 [Example 487, (R)-3-(1-((3-chloro-7-fluoro-6-(2-(2-hydroxypropan-2-yl)pyrimidin-5-yl)-1,5-naphthyridin-4-yl)amino)-2,2-difluoroethyl)-4-fluorobenzamide] | < 1
